{"source": "patent US20250296953A1", "about": "“3,4-THIAZOLO-STEROIDS AND METHODS OF MAKING AND USING THE SAME” (Arkansas State University - Jonesboro, priority 2018, published 2025)", "key": {"[1]": {"tested_on": "60 different human tumor cell lines", "details": "five dose; for CC50: read-out: LC50"}, "[2]": {"tested_on": "gliosarcoma (SF-539)", "test": "NCI 60 five dose screen", "details": "SF-539 (CNS Cancer), five dose"}, "[3]": {"tested_on": "SF-539", "test": "NCI 60 one dose screen", "format": "cell-based, human", "details": "one dose; CNS Cancer; SF-539"}, "[4]": {"tested_on": "SR", "test": "NCI 60 five dose screen", "details": "SR (Leukemia), five dose"}}, "note": "Read-outs that look alike come from different tables or passages of the source.", "data": [{"compound": "C[C@]12CCc3nc(Nc4ccc(O)cc4)sc3C1=CC[C@@H]1[C@@H]2CC[C@]2(C)C(=O)CC[C@@H]12", "note": "[IIa.35]", "values": [{"measurement": "TGI", "setting": "[1]; SF-268 (CNS Cancer)", "result": "4.00E−4"}, {"measurement": "GI50", "setting": "[1]; SK-MEL-2 (Melanoma)", "result": 6.98, "unit": "µM"}, {"measurement": "TGI", "setting": "[1]; SK-MEL-2 (Melanoma)", "result": ">1.00E−4"}, {"measurement": "GI50", "setting": "[1]; SK-MEL-5 (Melanoma)", "result": 4.33, "unit": "µM"}, {"measurement": "TGI", "setting": "[1]; SK-MEL-5 (Melanoma)", "result": "3.19E−5"}, {"measurement": "GI50", "setting": "[1]; SK-MEL-28 (Melanoma)", "result": 2.08, "unit": "µM"}, {"measurement": "TGI", "setting": "[1]; SK-MEL-28 (Melanoma)", "result": "4.75E−6"}, {"measurement": "GI50", "setting": "[1]; SK-OV-3 (Ovarian Cancer)", "result": 12.3, "unit": "µM"}, {"measurement": "TGI", "setting": "[1]; SK-OV-3 (Ovarian Cancer)", "result": ">1.00E−4"}, {"measurement": "GI50", "setting": "[1]; SN12C (Renal Cancer)", "result": 2.91, "unit": "µM"}, {"measurement": "TGI", "setting": "[1]; SN12C (Renal Cancer)", "result": ">1.00E−4"}, {"measurement": "GI50", "setting": "[1]; SNB-19 (CNS Cancer)", "result": 10.9, "unit": "µM"}, {"measurement": "TGI", "setting": "[1]; SNB-19 (CNS Cancer)", "result": ">1.00E−4"}, {"measurement": "GI50", "setting": "[1]; SNB-75 (CNS Cancer)", "result": 2.76, "unit": "µM"}, {"measurement": "TGI", "setting": "[1]; SNB-75 (CNS Cancer)", "result": ">1.00E−4"}, {"measurement": "GI50", "setting": "[1]; SW-620 (Colon Cancer)", "result": 2.08, "unit": "µM"}, {"measurement": "TGI", "setting": "[1]; SW-620 (Colon Cancer)", "result": "4.73E−6"}, {"measurement": "GI50", "setting": "[1]; T-47D (Breast Cancer)", "result": 1.95, "unit": "µM"}, {"measurement": "TGI", "setting": "[1]; T-47D (Breast Cancer)", "result": "5.03E−6"}, {"measurement": "GI50", "setting": "[1]; TK-10 (Renal Cancer)", "result": 2.01, "unit": "µM"}, {"measurement": "TGI", "setting": "[1]; TK-10 (Renal Cancer)", "result": "4.40E−6"}, {"measurement": "GI50", "setting": "[1]; U251 (CNS Cancer)", "result": 3.06, "unit": "µM"}, {"measurement": "TGI", "setting": "[1]; U251 (CNS Cancer)", "result": "2.19E−5"}, {"measurement": "GI50", "setting": "[1]; UACC-62 (Melanoma)", "result": 1.76, "unit": "µM"}, {"measurement": "TGI", "setting": "[1]; UACC-62 (Melanoma)", "result": "4.02E−6"}, {"measurement": "GI50", "setting": "[1]; UACC-257 (Melanoma)", "result": 1.86, "unit": "µM"}, {"measurement": "TGI", "setting": "[1]; UACC-257 (Melanoma)", "result": "4.62E−6"}, {"measurement": "GI50", "setting": "[1]; UO-31 (Renal Cancer)", "result": 1.54, "unit": "µM"}, {"measurement": "TGI", "setting": "[1]; UO-31 (Renal Cancer)", "result": "2.90E−6"}, {"measurement": "CC50", "setting": "[1]; A498 (Renal Cancer)", "result": "> 100", "unit": "µM"}, {"measurement": "CC50", "setting": "[1]; A549/ATCC (Non-small Cell Lung Cancer)", "result": "> 100", "unit": "µM"}, {"measurement": "CC50", "setting": "[1]; ACHN (Renal Cancer)", "result": 36.6, "unit": "µM"}, {"measurement": "CC50", "setting": "[1]; BT-549 (Breast Cancer)", "result": "> 100", "unit": "µM"}, {"measurement": "CC50", "setting": "[1]; CCRF-CEM (Leukemia)", "result": "> 100", "unit": "µM"}, {"measurement": "CC50", "setting": "[1]; COLO 205 (Colon Cancer)", "result": 7.61, "unit": "µM"}, {"measurement": "CC50", "setting": "[1]; EKVX (Non-small Cell Lung Cancer)", "result": "> 100", "unit": "µM"}, {"measurement": "CC50", "setting": "[1]; HCC-2998 (Colon Cancer)", "result": "> 100", "unit": "µM"}, {"measurement": "CC50", "setting": "[1]; HCT-15 (Colon Cancer)", "result": "> 100", "unit": "µM"}, {"measurement": "CC50", "setting": "[1]; HL-60(TB) (Leukemia)", "result": "> 100", "unit": "µM"}, {"measurement": "CC50", "setting": "[1]; HOP-62 (Non-small Cell Lung Cancer)", "result": "> 100", "unit": "µM"}, {"measurement": "CC50", "setting": "[1]; HOP-92 (Non-small Cell Lung Cancer)", "result": "> 100", "unit": "µM"}, {"measurement": "CC50", "setting": "[1]; HT29 (Colon Cancer)", "result": "> 100", "unit": "µM"}, {"measurement": "CC50", "setting": "[1]; IGROV1 (Ovarian Cancer)", "result": "> 100", "unit": "µM"}, {"measurement": "CC50", "setting": "[1]; K-562 (Leukemia)", "result": "> 100", "unit": "µM"}, {"measurement": "CC50", "setting": "[1]; M14 (Melanoma)", "result": "> 100", "unit": "µM"}, {"measurement": "CC50", "setting": "[1]; MALME-3M (Melanoma)", "result": 8.96, "unit": "µM"}, {"measurement": "CC50", "setting": "[1]; MCF7 (Breast Cancer)", "result": "> 100", "unit": "µM"}, {"measurement": "CC50", "setting": "[1]; MDA-MB-231/ATCC (Breast Cancer)", "result": "> 100", "unit": "µM"}, {"measurement": "CC50", "setting": "[1]; MDA-MB-435 (Melanoma)", "result": "> 100", "unit": "µM"}, {"measurement": "CC50", "setting": "[1]; MDA-MB-468 (Breast Cancer)", "result": "> 100", "unit": "µM"}, {"measurement": "CC50", "setting": "[1]; MOLT-4 (Leukemia)", "result": "> 100", "unit": "µM"}, {"measurement": "CC50", "setting": "[1]; NCI-H23 (Non-small Cell Lung Cancer)", "result": "> 100", "unit": "µM"}, {"measurement": "CC50", "setting": "[1]; NCI-H226 (Non-small Cell Lung Cancer)", "result": "> 100", "unit": "µM"}, {"measurement": "CC50", "setting": "[1]; NCI-H460 (Non-small Cell Lung Cancer)", "result": "> 100", "unit": "µM"}, {"measurement": "CC50", "setting": "[1]; NCI-H522 (Non-small Cell Lung Cancer)", "result": 6.18, "unit": "µM"}, {"measurement": "CC50", "setting": "[1]; NCI/ADR-RES (Ovarian Cancer)", "result": "> 100", "unit": "µM"}, {"measurement": "CC50", "setting": "[1]; OVCAR-3 (Ovarian Cancer)", "result": 6.7, "unit": "µM"}, {"measurement": "CC50", "setting": "[1]; OVCAR-4 (Ovarian Cancer)", "result": "> 100", "unit": "µM"}, {"measurement": "CC50", "setting": "[1]; OVCAR-5 (Ovarian Cancer)", "result": "> 100", "unit": "µM"}, {"measurement": "CC50", "setting": "[1]; OVCAR-8 (Ovarian Cancer)", "result": "> 100", "unit": "µM"}, {"measurement": "CC50", "setting": "[1]; PC-3 (Prostate Cancer)", "result": "> 100", "unit": "µM"}, {"measurement": "CC50", "setting": "[1]; SF-268 (CNS Cancer)", "result": "> 100", "unit": "µM"}, {"measurement": "CC50", "setting": "[1]; SK-MEL-2 (Melanoma)", "result": "> 100", "unit": "µM"}, {"measurement": "CC50", "setting": "[1]; SK-MEL-5 (Melanoma)", "result": "> 100", "unit": "µM"}, {"measurement": "CC50", "setting": "[1]; SK-MEL-28 (Melanoma)", "result": "> 100", "unit": "µM"}, {"measurement": "CC50", "setting": "[1]; SK-OV-3 (Ovarian Cancer)", "result": "> 100", "unit": "µM"}, {"measurement": "CC50", "setting": "[1]; SN12C (Renal Cancer)", "result": "> 100", "unit": "µM"}, {"measurement": "CC50", "setting": "[1]; SNB-19 (CNS Cancer)", "result": "> 100", "unit": "µM"}, {"measurement": "CC50", "setting": "[1]; SNB-75 (CNS Cancer)", "result": "> 100", "unit": "µM"}, {"measurement": "CC50", "setting": "[1]; SW-620 (Colon Cancer)", "result": "> 100", "unit": "µM"}, {"measurement": "CC50", "setting": "[1]; T-47D (Breast Cancer)", "result": "> 100", "unit": "µM"}, {"measurement": "CC50", "setting": "[1]; TK-10 (Renal Cancer)", "result": 9.6, "unit": "µM"}, {"measurement": "CC50", "setting": "[1]; U251 (CNS Cancer)", "result": "> 100", "unit": "µM"}, {"measurement": "CC50", "setting": "[1]; UACC-62 (Melanoma)", "result": 9.19, "unit": "µM"}, {"measurement": "CC50", "setting": "[1]; UACC-257 (Melanoma)", "result": "> 100", "unit": "µM"}, {"measurement": "CC50", "setting": "[1]; UO-31 (Renal Cancer)", "result": 9.49, "unit": "µM"}, {"measurement": "GI50", "setting": "[2]", "result": 1.76, "unit": "µM"}, {"measurement": "TGI", "setting": "[2]", "result": "3.59E−6"}, {"measurement": "CC50", "setting": "[2]; read-out: LC50", "result": 7.34, "unit": "µM"}, {"measurement": "Growth Percent", "setting": "[3]", "result": "−3.84", "unit": "%"}, {"measurement": "GI50", "setting": "[4]", "result": 2.72, "unit": "µM"}, {"measurement": "TGI", "setting": "[4]", "result": ">1.00E−4"}, {"measurement": "CC50", "setting": "[4]; read-out: LC50", "result": "> 100", "unit": "µM"}]}]}
